In publication PMC8922281, “Synthesis and In Vitro Biological Evaluation of Quinolinyl Pyrimidines Targeting Type II NADH-Dehydrogenase (NDH-2)” (ACS Infectious Diseases, 2022):
In brackets after ≈: the same amount, converted by molar mass. Several values for one entry are separate records, joined by “and”; a condition that tells them apart may be missing. Equal entries are not always repeated. Where two headings read alike, the source gives them in different places.

Tests used:
[1] = test system: E. coli (ΔtolC efflux-defective mutant, isogenic to ATCC 25922); assay: microbe, parasite or virus in culture; type: cell-based; conditions: Escherichia coli, ATCC25922, read-out: MIC Ec ΔtolC
MtNDH-2 = MtNDH-2 (Mycobacterium tuberculosis, UniProt P95160); assay: biochemical; parameters: species or system M. tuberculosis; conditions: MtNDH-2 IC50
Chain of MtNDH-2 (P95160 2-463, added parts left off): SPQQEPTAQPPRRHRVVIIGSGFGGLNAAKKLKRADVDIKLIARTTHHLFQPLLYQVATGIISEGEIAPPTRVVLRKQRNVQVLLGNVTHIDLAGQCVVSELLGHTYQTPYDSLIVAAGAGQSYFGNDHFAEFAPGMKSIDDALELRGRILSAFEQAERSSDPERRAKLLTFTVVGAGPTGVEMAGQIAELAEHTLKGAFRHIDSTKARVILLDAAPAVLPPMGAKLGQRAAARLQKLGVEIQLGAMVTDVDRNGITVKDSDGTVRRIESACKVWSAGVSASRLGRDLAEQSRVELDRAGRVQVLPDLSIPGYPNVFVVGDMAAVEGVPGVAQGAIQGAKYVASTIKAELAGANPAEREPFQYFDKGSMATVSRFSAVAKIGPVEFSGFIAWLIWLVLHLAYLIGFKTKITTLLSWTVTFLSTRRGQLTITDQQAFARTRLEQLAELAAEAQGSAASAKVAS

MsNDH-2 = MsNDH-2 (Mycolicibacterium smegmatis, UniProt A0QYD6); assay: Inhibition of MsNDH-2 (NADH oxidation with menadione, absorbance at 340 nm); type: biochemical, M. smegmatis
Chain of MsNDH-2 (A0QYD6 1-457): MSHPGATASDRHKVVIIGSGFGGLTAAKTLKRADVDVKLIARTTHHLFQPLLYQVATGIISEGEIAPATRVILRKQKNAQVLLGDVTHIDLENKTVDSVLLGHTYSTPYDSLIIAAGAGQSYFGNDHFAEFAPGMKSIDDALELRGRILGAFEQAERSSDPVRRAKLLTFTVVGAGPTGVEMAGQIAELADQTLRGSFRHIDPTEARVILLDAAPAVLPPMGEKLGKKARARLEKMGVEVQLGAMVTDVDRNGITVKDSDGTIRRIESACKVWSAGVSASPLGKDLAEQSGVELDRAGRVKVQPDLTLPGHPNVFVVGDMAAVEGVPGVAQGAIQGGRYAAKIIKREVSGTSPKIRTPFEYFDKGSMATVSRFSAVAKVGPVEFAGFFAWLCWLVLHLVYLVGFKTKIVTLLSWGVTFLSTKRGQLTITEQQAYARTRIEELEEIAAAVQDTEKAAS

[2] = test system: P. aeruginosa (PAO1, wild-type); assay: MIC on ESKAPE pathogens, P. aeruginosa wild-type; type: cell-based; conditions: Pseudomonas aeruginosa, PAO1, P. aeruginosa PAO1, wild-type; read-out: MIC Pa WT
[3] = test system: E. coli (ATCC 25922, wild-type); assay: MIC on ESKAPE pathogens, E. coli wild-type; type: cell-based; conditions: Escherichia coli, ATCC25922; E. coli ATCC 25922, wild-type; read-out: MIC Ec WT
[4] = test system: S. aureus (ATCC 29213, wild-type); assay: MIC on ESKAPE pathogens, S. aureus; type: cell-based; conditions: Staphylococcus aureus, ATCC29213
[5] = test system: M. tuberculosis strain H37Rv (ATCC 25618); assay: MIC on M. tuberculosis by resazurin reduction microplate assay (REMA); type: cell-based; conditions: Mycobacterium tuberculosis
[6] = test system: E. coli (D22, lpxC mutant, drug-hypersensitive); assay: microbe, parasite or virus in culture; type: cell-based; conditions: Escherichia coli, read-out: MIC Ec D22
[7] = test system: K. pneumonia (ATCC 13833, wild-type); assay: MIC on ESKAPE pathogens, K. pneumoniae
[8] = test system: P. aeruginosa (PAO750 efflux-defective mutant, isogenic to PAO1); assay: microbe, parasite or virus in culture; type: cell-based; conditions: Pseudomonas aeruginosa, PAO1, read-out: MIC Pa efflux
[9] = test system: A. baumannii (ATCC 19606, wild-type); assay: MIC on ESKAPE pathogens, A. baumannii; type: cell-based; conditions: Acinetobacter baumannii, ATCC19606; A. baumannii ATCC 19606, wild-type; read-out: MIC Ab WT
[10] = Cytotoxicity on the MRC-5 cell line (resazurin); type: cell-based; conditions: human, MRC-5SV2 cells, MRC-5SV2, 3 days
Experimental: MRC-5SV2 cells were cultured in Earl’s MEM + 5% FCSi. Assays were performed in 96-well microtiter plates, each well containing about 10^4 cells/well. After 3 days of incubation with or without compounds, cell viability was assessed fluorimetrically after the addition of resazurin (λex 550 nm, λem 590 nm). The results were expressed as % reduction in cell growth/viability compared to untreated control wells and CC50 was determined. Testing/retesting strategy was as described above for HepG2 cells.

[11] = test system: P. aeruginosa PAO1 resistant mutants; assay: microbe, parasite or virus in culture; type: cell-based
HepG2 cells = conditions: human, 72 h
[12] = test system: Trypanosoma brucei brucei Squib 427; assay: Trypanosoma brucei growth (resazurin); type: cell-based; conditions: reference compound
Experimental: page 46: of PES (phenazine ethosulfate, 0.1 mg/ml) and NBT (Nitro Blue Tetrazolium Grade III, 2 mg/ml) in a new plate. The absorbance change was measured at 655nm. The results were shown as % reduction in parasitemia, compared to control wells with no treatment. […] A compound […] secondary screening. 3. Trypanosoma brucei sample has 7*104 parasites/ml in the suspension. Cultured for 3 days, the growth of the cells was assessed fluorimetrically with the addition of resazurin in a microtiter plate. The fluorescence intensity was measured after 24h at 37 °C with the excitation wavelength at 550nm and the emission wavelength at 590nm. The results were presented as % reduction in parasite growth, compared to reference wells with no treatment, followed by IC50 calculation. Suramine was used as the reference compound […] subsequently evaluated in a secondary assay, with broader concentration range, additional references, and other species. IC50 values are shown in Table S1, followed by semi-quantitative activity scores, and indications for specificity. […]

[13] = H37Rv, reference antitubercular agents, read-out: MIC M. tuberculosis

**Q.** What does the source list for `Nc1nc(Nc2ccc3nc(-c4ccc(F)cc4)cc(N)c3c2)cc(N2CCC(N)CC2)n1` [Compound 8j, N^6-(2-Amino-6-(4-aminopiperidin-1-yl)pyrimidin-4-yl)-2-(4-fluorophenyl)quinoline-4,6-diamine]?
**A.** MIC [1]: 16 µg/mL (≈ 36 µM); IC50 (MtNDH-2): 6.1 µM and 6.07 µM; IC50 (MsNDH-2; 95% confidence interval in parentheses, 50 nM enzyme, 50 μM menadione, >100: no significant inhibition at 100 μM): 21 µM; IC50 (MsNDH-2; same IC50 given in μg/mL to assist comparisons with MICs): 21.4 µM; MIC [2]: 4 µg/mL (≈ 9 µM); MIC [3]: 64 µg/mL (≈ 144 µM); MIC [4]: 32 µg/mL (≈ 72 µM); MIC ([5]; M. tuberculosis H37Rv, read-out: MIC Mtb): 44.5 µg/mL; MIC [6]: 8 µg/mL (≈ 18 µM); MIC Kp WT [7]: >128 µg/mL; MIC [8]: 8 µg/mL (≈ 18 µM); MIC [9]: 128 µg/mL (≈ 288 µM); IC50 at 3 days ([10]; resazurin): 22 µM; IC50 at 3 days ([10]; value in parentheses): 9.8 µg/mL; MIC ([11]; Pseudomonas aeruginosa, PAO1, read-out: MIC mutant): 32 µg/mL (≈ 72 µM); fold increase of MIC ([11]; mutant CH5071 vs parent P. aeruginosa PAO1): 8; MIC mutant ([11]; mutant CH5072 raised against 8j, phoQ Leu158fs): 32 mg/L (≈ 72 µM); fold increase of MIC ([11]; mutant CH5072 vs parent P. aeruginosa PAO1): 8; MIC mutant ([11]; mutant CH5073 raised against 8j, basS (pmrB) Ser257Asn): 32 mg/L (≈ 72 µM); fold increase of MIC ([11]; mutant CH5073 vs parent P. aeruginosa PAO1): 8; MIC mutant ([11]; mutant CH5075 raised against 8j, basS (pmrB) Ala29Glu): 32 mg/L (≈ 72 µM); fold increase of MIC ([11]; mutant CH5075 vs parent P. aeruginosa PAO1): 8; MIC mutant ([11]; mutant CH5077 raised against 8j, phoQ Ser151 stop codon): 32 mg/L (≈ 72 µM); fold increase of MIC ([11]; mutant CH5077 vs parent P. aeruginosa PAO1): 8

**Q.** For `CO[C@H]1/C=C/O[C@@]2(C)Oc3c(C)c(O)c4c(O)c(c(/C=N/N5CCN(C)CC5)c(O)c4c3C2=O)NC(=O)/C(C)=C\C=C\[C@H](C)[C@H](O)[C@@H](C)[C@@H](O)[C@@H](C)[C@H](OC(C)=O)[C@@H]1C` [Rifampicin, reference compound], which “cytotoxicity HepG2 TD50” value (HepG2 cells) is on record?
**A.** The value was 75 µM.

**Q.** What about the “cytotoxicity HepG2 TD99” value (HepG2 cells) of the same compound?
**A.** Its value is at least 100 µM.

**Q.** And the MIC [5, 13]?
**A.** The MIC was 0.0003 µM.

**Q.** For `Cc1ccc(C(=O)Nc2ccc(S(=O)(=O)O)c3cc(S(=O)(=O)O)cc(S(=O)(=O)O)c23)cc1NC(=O)c1cccc(NC(=O)Nc2cccc(C(=O)Nc3cc(C(=O)Nc4ccc(S(=O)(=O)O)c5cc(S(=O)(=O)O)cc(S(=O)(=O)O)c45)ccc3C)c2)c1` [Suramine], which IC50 [12] is on record?
**A.** The IC50 was 40 nM.

**Q.** Which “cytotoxicity HepG2 TD50” value (HepG2 cells) does the source give for `COc1nc2ccc(Br)cc2cc1[C@@H](c1ccccc1)[C@@](O)(CCN(C)C)c1cccc2ccccc12` [bedaquiline, reference compound] here?
**A.** The value was 50 µM.

**Q.** What about the “cytotoxicity HepG2 TD99” value (HepG2 cells) of the same compound?
**A.** Its value is at least 100 µM.

**Q.** What about the MIC [5, 13] of the same compound?
**A.** The MIC was 0.37 µM.
